Results as given in patent US20200276145A1, “REDUCING SIDE EFFECTS OF SHORT ACTING NO DONORS” (G. POHL-BOSKAMP GMBH & CO. KG, priority 2016, published 2020).
“And” between values parts separate entries of the source, which are not always exact repeats. Identical values can stand only once.

Experiments:
[1] = after oral administration; cited from earlier work
[2] = Individual dose titration of sublingual nitroglycerin, side effects (Examples 1 and 2); assay type: in vivo, human
[3] = Phase IIa forced-titration trial of nitroglycerin sublingual powder in PAOD patients, interim analysis of headache (Example 3); assay type: in vivo, human; details: for Headache days (%): of study days corrected by drop-out days
Experimental: The patients are advised to take the dosages in the morning, noon and evening so that the short acting NO donor is administered in an intermittent manner.
Participants report adverse effects during the study with headache being one of the adverse effects.
The study has not yet been finalized but an interim analysis regarding headache as an adverse effect of the study drug has been performed (FIG. 2, Table 1-3).
At the time point of the interim analysis the study was still blinded, so with regard to patients' reported adverse event headache it could not be distinguished between the frequency of headache in the verum and the placebo group.
As the titration of the study medication takes place in the first 3 weeks, the analysis is focused on reported headache in the first three weeks plus in week 4 to also monitor possible late or ongoing side effects.
The analysis includes 35 participants so far which are at different time points of the study protocol. In FIG. 1 the individual headache days of the 35 participants are shown. Some participants have already reached the end of the 12-week treatment period and are in the follow-up period, some participants are still on treatment, but all participants […] have surpassed the titration phase and are on the final dosage of 0.7 mg GTN.

[4] = total of 2453 study days so far
[5] = weeks 1-4, of 927 corrected study days

In the case of O=[N+]([O-])O[C@@H]1CO[C@H]2[C@@H]1OC[C@@H]2O [isosorbide mononitrate], the Halftime [1] is given as “around 5 hours”.
With O=[N+]([O-])OCC(CO[N+](=O)[O-])O[N+](=O)[O-] [nitroglycerin] the Side effects ([2]; Example 1, final dosage 0.7 mg after weekly increase 0.15-0.3-0.5-0.7 mg) was “without side effects”, the Side effects ([2]; Example 1, person, approximately 0.15 mg GTN TID sublingual powder) was “no headache or other known GTN side effects” and the Side effects ([2]; Example 1, sublingual nitroglycerin in a therapeutic dose, no titration) was “severe headache”. The Side effects ([2]; Example 2, 0.15 mg TID) was “no nausea or headache or other known GTN side effects”, the Side effects ([2]; Example 2, final dosage 0.4 mg TID after weekly increase 0.15-0.3-0.4 mg) was “without side effects” and the Side effects ([2]; Example 2, person, initial dose 0.4 mg sublingual, no titration) was “nausea and mild headache”. For the same compound, the “Remaining share of participant headache days when the 3 participants are excluded” value ([3]; 3 participants with possible chronic headache or migraine excluded) was 15%, the “Possibly headache related drop-outs” value ([3]; during the titration in the first 4 weeks) was “one” and the “Headache days of the 3 participants with possible chronic headache or migraine background” value ([3]; first 4 weeks) was 82 days. The “Participants in whom the headache lasted more than a week” value ([3]; first 4 weeks) was 5 participants, the “Share of headache days due to the 3 participants with possible chronic headache or migraine background” value ([3]; first 4 weeks) was 65% and the “Participants with headache on a single day” value ([3]; first 4 weeks, not during the first three days, of 35) was 6 participants. The “Participants with headache that lasted more than one day” value ([3]; first 4 weeks, of 35) was 6 participants, the “Additional participants dropped out due to headache” value ([3]; further course of the therapy) was 2 participants and the “Overall headache frequency in the present study” value ([3]; interim analysis, blinded) was “below 30%”. For the same compound, the “Headache days recorded for the 3 participants with continuous headache” value ([3]; overall study) was 209 days and 212 days, the “Share of total headache days due to the 3 participants with continuous headache” value ([3]; overall study) was 85% and the “Participants that have headache during the first days of treatment” value ([3]; starting dose 0.3 mg GTN) was 5 participants. The “Percentage of participants that have headache during the first days of treatment” value ([3]; starting dose 0.3 mg GTN) was 14.3%, the “Participant headache days recorded so far (overall study)” value [3, 4] was 245 days and 251 days and the “Percentage of headache days of total study days so far” value [3, 4] was 10%. The “Participants with possible chronic headache or migraine history” value ([3]; week 1) was 3, the “Headache corrected by participants with possible chronic headache or migraine history (%)” value (from here on “Headache corrected by participants … (%)”) ([3]; week 1, 0.3 mg GTN) was 20% and the “Participant headache days corrected by participants with possible chronic headache or migraine history (%)” value (“Participant headache days corrected … (%)” for short) ([3]; week 1, 0.3 mg GTN) was 7.8%. The “Headache (%) of participants” value ([3]; week 1, 0.3 mg GTN, blinded) was 28.6%, the “Headache days (%)” value ([3]; week 1, 0.3 mg GTN) was 15.5% and the “Participants with possible chronic headache or migraine history” value ([3]; week 2) was 3. For the same compound, the “Headache corrected by participants … (%)” value ([3]; week 2, 0.5 mg GTN) was 11.4%, the “Participant headache days corrected … (%)” value ([3]; week 2, 0.5 mg GTN) was 4.2% and the “Headache (%) of participants” value ([3]; week 2, 0.5 mg GTN, blinded) was 20%. For the same compound, the “Headache (%) of participants” value ([3]; week 2, 0.5 mg GTN, blinded, listed as GTN) was 20.0%, the “Headache days (%)” value ([3]; week 2, 0.5 mg GTN) was 13.0% and the “Change of headache frequency as a result of the increased dosage” value ([3]; week 2, 3 or 4 versus week 1) was “did not monitor an increased headache frequency”. For the same compound, the “Participants with possible chronic headache or migraine history” value ([3]; week 3) was 3, the “Headache corrected by participants … (%)” value ([3]; week 3, 0.7 mg GTN) was 5.7% and the “Participant headache days corrected … (%)” value ([3]; week 3, 0.7 mg GTN) was 3.1%. The “Headache (%) of participants” value ([3]; week 3, 0.7 mg GTN, blinded) was 14.3%, the “Headache days (%)” value ([3]; week 3, 0.7 mg GTN) was 12.3% and the “Participants with possible chronic headache or migraine history” value ([3]; week 4) was 3. The “Headache corrected by participants … (%)” value ([3]; week 4, 0.7 mg GTN) was 0%, the “Participant headache days corrected … (%)” value ([3]; week 4, 0.7 mg GTN) was 0% and the “Headache (%) of participants” value ([3]; week 4, 0.7 mg GTN, blinded) was 8.6%. For the same compound, the “Headache days (%)” value ([3]; week 4, 0.7 mg GTN) was 9.7%, the “Headache days during the first 4 weeks” value [3, 5] was 118 days and 127 days and the “Overall percentage of headache days during the first 4 weeks” value [3, 5] was 12.7%.
